2 compounds from US20160271162A1, “D-ALANINE PHOSPHORAMIDE PRONUCLEOTIDES OF 2'-METHYL 2'-FLURO GUANOSINE NUCLEOSIDE COMPOUNDS FOR THE TREATMENT OF HCV” (IDENIX PHARMACEUTICALS, LLC, priority 2013, published 2016) can be followed below.

One series relates to HCV genotype 1b replicon. The series is described as follows: HCV replicon assay (luciferase reporter). The format is cell-based. The note with it: Hepatitis C virus, Huh-7-derived Zluc cells, 72 hours incubation. On the procedure:
Huh-7-derived cell line (Zluc) that harbors an HCV genotype 1b replicon and a luciferase reporter gene was grown in Dulbecco's Modified Eagle Medium (DMEM) supplemented with 10% fetal bovine serum, 2 mM GlutaMAX, 1% MEM nonessential amino acids, 100 IU/mL penicillin, 100 μg/mL streptomycin, and 0.5 mg/mL Geneticin® (G418). For dose response testing the cells were seeded in 96-well plates at 7.5×10^3 cells per well in a volume of 50 μl, and incubated at 37° C./5% CO2. Drug solutions were made up freshly in Huh-7 media as 2× stocks. Ten additional 5-fold dilutions were prepared from these stocks in DMEM without G418. At least three hours after Zluc cells were seeded, drug treatment was initiated by adding 50 μL of drug dilutions to the plates in duplicate. Final concentrations of drug ranged from 100 μM to 0.0000512 μM. […] After 72 hours of incubation, the inhibition of HCV replication was measured by quantification of photons emitted after mono-oxygenation of 5′-fluoroluciferin to oxyfluoroluciferin by firefly luciferase. […] The plates were shaken gently for 3 min at room temperature and luminescence was measured on a Victor^3 V 1420 multilabel counter (Perkin Elmer) with a 1 second read time using a 700 nm cut-off filter. The EC50 values were calculated from dose response curves from the resulting best-fit equations determined by Microsoft Excel and XLfit 5.2 software. […]
In general terms: In antiviral work, replicon cells carry a viral genome segment that copies itself.

A short description of series [1]: Cytotoxicity evaluation, CellTiter-Blue cell viability. The format is cell-based. The following applies: human, Zluc cells (HCV replicon), CellTiter-Blue Cell Viability Assay. As for the experimental part: For cytotoxicity evaluation, Zluc cells were treated with compound as described herein, and cell viability was monitored using the CellTiter-Blue Cell Viability Assay (Promega) by adding 20 μL of the assay solution to each well. The plates were then incubated at 37° C./5% CO2 for at least 3 hours. Fluorescence was detected in plates using excitation and emission wavelengths of 531 and 595 nm, respectively, in a Victor^3 V 1420 multilabel counter (Perkin Elmer) and CC50 values were determined using Microsoft Excel and XLfit 5.2 software.

Series [2] in a line: Liver pharmacokinetics following a single oral dose in CD-1 mice. The format is in vivo. The note with it: 2′-Me-2′-F-G TP in liver, single oral dose 10 mg/kg in PEG 200, CD-1 male mice, 4, 12 and 24 hours post dose. As for the experimental part: A single oral dose of test compound at 10 mg/kg for 104a and 104b in PEG 200 (dose volume 5 mL/kg) is administered to nine CD-1 male mice. Five untreated animals are used for the collection of control plasma and liver. Terminal plasma and liver samples are collected from three animals per time point at 4, 12 and 24 hours post dose. Liver specimens are collected from all animals immediately after the incision. Freezing forceps stored in liquid nitrogen are used to freeze the liver before excision.
Liver samples are analyzed for the active species 2′-methyl-2′-fluoroguanosine triphosphate (2′-Me-2′-F-G TP) by LC-MS/MS. 2′-Me-2′-F-G TP levels are assayed by homogenizing (on ice) a known weight of mouse liver with 4× volume of 0.95 M trichloroacetic acid (TCA). Internal standard solution is added to the homogenate followed by neutralization with 20% ammonium hydroxide solution and addition of 500 μL 1% formic acid. The tissue samples are extracted by weak anion exchange solid phase extraction (SPE). Post extraction, the eluates are evaporated under nitrogen, followed by reconstitution before injection onto the LC-MS/MS system. […] The analyte is detected and quantified by tandem mass spectrometry in positive ion mode on an API4000 equipped with a Turbo Ionspray® interface. […]

A value given as a limit tells only on which side of the number the result lay.

As usually defined, the EC50 is the concentration at which the effect is half-maximal. Higher therefore signals weaker potency. One may read the CC50 as the concentration giving 50% cytotoxicity. As for `CCOc1nc(N)nc2c1ncn2C1O[C@H](COP(=O)(N[C@H](C)C(=O)OC(C)C)Oc2ccccc2)[C@@H](O)[C@@]1(C)F` (stereo partly drawn) [Compound 104a], the EC50 with HCV genotype 1b replicon was 0.25 to 1 µM. Besides, the CC50 at 72 h in series [1] was above 50 µM. Moreover, the “Mouse Liver TP AUC0-24” value in series [2] was “+++ (500 < +++ ≦ 2000)”.

The compound `CCOc1nc(N)nc2c1ncn2C1O[C@H](CO[P@@](=O)(N[C@H](C)C(=O)OC(C)C)Oc2ccccc2)[C@@H](O)[C@@]1(C)F` (stereo partly drawn) [Compound 104b] gave an EC50 with HCV genotype 1b replicon of 0.25 to 1 µM. Besides, in series [1], the cytotoxic concentration (CC50) at 72 h was above 50 µM. For the same compound, the “Mouse Liver TP AUC0-24” value in series [2] was “+++ (500 < +++ ≦ 2000)”.
